{"source": "ChEMBL document CHEMBL4627407", "about": "“Identification of a Potent Oridonin Analogue for Treatment of Triple-Negative Breast Cancer” (J Med Chem, 2020)", "key": {"HCC1806 [1]": {"test_system": "HCC1806", "assay": "Antitumor activity against human HCC1806 cells in ICR mouse assessed as tumor shrinkage at 6 mg/kg, iv administered once per 2 days for 23 consecutive days by hematoxylin and eosin staining based histopathological assay", "format": "functional, organism-based"}, "HCC1806 [2]": {"test_system": "HCC1806", "assay": "Antitumor activity against human HCC1806 cells in ICR mouse assessed as tumor shrinkage at 6 mg/kg, iv administered once per 2 days for 23 consecutive days by Ki67 staining-based immunohistochemical analysis", "format": "functional, organism-based"}, "HCC1806 [3]": {"test_system": "HCC1806", "assay": "Antitumor activity against human HCC1806 cells in ICR mouse assessed as increase in apoptosis in tumor at 6 mg/kg, iv administered once per 2 days for 23 consecutive days by hematoxylin and eosin staining based histopathological assay", "format": "functional, organism-based"}, "HCC1806 [4]": {"test_system": "HCC1806", "assay": "Antitumor activity against human HCC1806 cells in ICR mouse assessed as increase in apoptosis in tumor at 6 mg/kg, iv administered once per 2 days for 23 consecutive days by TUNEL based immunohistochemical analysis", "format": "functional, organism-based"}, "[5]": {"assay": "Toxicity in ICR mouse assessed as reduction in body weight at 6 mg/kg, iv administered once per 2 days for 23 consecutive days and measured every 2 days", "format": "organism-based", "conditions": "in vivo, 48 h"}, "HCC1806 [6]": {"test_system": "HCC1806", "assay": "Antitumor activity against human HCC1806 cells in ICR mouse assessed as tumor shrinkage at 6 mg/kg, iv administered once per 2 days for 23 consecutive days by TUNEL based immunohistochemical analysis", "format": "functional, organism-based"}, "HCC1806 [7]": {"test_system": "HCC1806", "assay": "Antitumor activity against human HCC1806 cells in ICR mouse assessed as increase in apoptosis in tumor at 6 mg/kg, iv administered once per 2 days for 23 consecutive days by Ki67 staining-based immunohistochemical analysis", "format": "functional, organism-based"}, "HCC1806 [8]": {"test_system": "HCC1806", "assay": "Antitumor activity against human HCC1806 cells in ICR mouse assessed as reduction in tumor weight at 6 mg/kg, iv administered once per 2 days for 23 consecutive days and measured every 2 days relative to control", "format": "functional", "set-up": "scale not given: the % may be the effect or the level left"}, "HCC1806 [9]": {"test_system": "HCC1806", "assay": "Antitumor activity against human HCC1806 cells harboring luciferase gene xenografted in ICR mouse assessed as shrunken tumor tissue at 6 mg/kg, iv administered once per 2 days for 21 consecutive days and measured once every week", "format": "functional, organism-based"}}, "note": "The source made the active and inactive calls. No cut-off for these calls is given here.", "data": [{"compound": "CC(=O)O[C@H]1C(=O)[C@@]2(C)[C@H]([C@H](OC(=O)c3ccccc3)[C@]3(O)C[C@H](OC(=O)[C@H](O)[C@@H](NC(=O)c4ccccc4)c4ccccc4)C(C)=C1C3(C)C)[C@]1(OC(C)=O)CO[C@@H]1C[C@@H]2O", "note": "[PACLITAXEL]", "values": [{"measurement": "Activity", "setting": "HCC1806 [1]", "result": "Active"}, {"measurement": "Activity", "setting": "HCC1806 [2]", "result": "Active"}, {"measurement": "Activity", "setting": "HCC1806 [3]", "result": "Active"}, {"measurement": "Activity", "setting": "HCC1806 [4]", "result": "Active"}, {"measurement": "Activity", "setting": "[5]", "result": "Toxic"}, {"measurement": "Activity", "setting": "HCC1806 [6]", "result": "Active"}, {"measurement": "Activity", "setting": "HCC1806 [7]", "result": "Active"}, {"measurement": "Activity", "setting": "HCC1806 [8]", "result": 66, "unit": "%"}, {"measurement": "Activity", "setting": "HCC1806 [9]", "result": "Active"}]}]}
